Assay results from PMC2896053 (Pharmaceutical research, 2009).
Entries after “also recorded” stand apart in the source; their conditions may differ. Where a name gives a salt, the structure may show the parent alone.

Legend:
[1] = test system: BBB transport of 125I-ANG1005; assay: brain 125I-ANG1005 uptake with co-perfused transport inhibitors; format: in vivo, rat; settings: P>0.05
[2] = test system: brain endothelial monolayer system; settings: cited from earlier work
[3] = capillary depletion after in situ brain perfusion; format: in vivo, rat; settings: 120 s perfusion, 30 s post wash
[4] = in situ rat brain perfusion, BBB transfer coefficient; settings: P>0.05
[5] = cited from earlier work
[6] = target: low density lipoprotein receptor-related protein (LRP) (Rattus norvegicus, UniProt G3V928); assay: brain 125I-ANG1005 uptake with co-perfused unlabeled angiopep-2 or LRP ligands; format: in vivo; settings: co-perfusion 120 s with 10 or 100 μM unlabeled angiopep-2, P<0.05
Sequence of low density lipoprotein receptor-related protein (LRP) (G3V928 20-3944 limits assumed): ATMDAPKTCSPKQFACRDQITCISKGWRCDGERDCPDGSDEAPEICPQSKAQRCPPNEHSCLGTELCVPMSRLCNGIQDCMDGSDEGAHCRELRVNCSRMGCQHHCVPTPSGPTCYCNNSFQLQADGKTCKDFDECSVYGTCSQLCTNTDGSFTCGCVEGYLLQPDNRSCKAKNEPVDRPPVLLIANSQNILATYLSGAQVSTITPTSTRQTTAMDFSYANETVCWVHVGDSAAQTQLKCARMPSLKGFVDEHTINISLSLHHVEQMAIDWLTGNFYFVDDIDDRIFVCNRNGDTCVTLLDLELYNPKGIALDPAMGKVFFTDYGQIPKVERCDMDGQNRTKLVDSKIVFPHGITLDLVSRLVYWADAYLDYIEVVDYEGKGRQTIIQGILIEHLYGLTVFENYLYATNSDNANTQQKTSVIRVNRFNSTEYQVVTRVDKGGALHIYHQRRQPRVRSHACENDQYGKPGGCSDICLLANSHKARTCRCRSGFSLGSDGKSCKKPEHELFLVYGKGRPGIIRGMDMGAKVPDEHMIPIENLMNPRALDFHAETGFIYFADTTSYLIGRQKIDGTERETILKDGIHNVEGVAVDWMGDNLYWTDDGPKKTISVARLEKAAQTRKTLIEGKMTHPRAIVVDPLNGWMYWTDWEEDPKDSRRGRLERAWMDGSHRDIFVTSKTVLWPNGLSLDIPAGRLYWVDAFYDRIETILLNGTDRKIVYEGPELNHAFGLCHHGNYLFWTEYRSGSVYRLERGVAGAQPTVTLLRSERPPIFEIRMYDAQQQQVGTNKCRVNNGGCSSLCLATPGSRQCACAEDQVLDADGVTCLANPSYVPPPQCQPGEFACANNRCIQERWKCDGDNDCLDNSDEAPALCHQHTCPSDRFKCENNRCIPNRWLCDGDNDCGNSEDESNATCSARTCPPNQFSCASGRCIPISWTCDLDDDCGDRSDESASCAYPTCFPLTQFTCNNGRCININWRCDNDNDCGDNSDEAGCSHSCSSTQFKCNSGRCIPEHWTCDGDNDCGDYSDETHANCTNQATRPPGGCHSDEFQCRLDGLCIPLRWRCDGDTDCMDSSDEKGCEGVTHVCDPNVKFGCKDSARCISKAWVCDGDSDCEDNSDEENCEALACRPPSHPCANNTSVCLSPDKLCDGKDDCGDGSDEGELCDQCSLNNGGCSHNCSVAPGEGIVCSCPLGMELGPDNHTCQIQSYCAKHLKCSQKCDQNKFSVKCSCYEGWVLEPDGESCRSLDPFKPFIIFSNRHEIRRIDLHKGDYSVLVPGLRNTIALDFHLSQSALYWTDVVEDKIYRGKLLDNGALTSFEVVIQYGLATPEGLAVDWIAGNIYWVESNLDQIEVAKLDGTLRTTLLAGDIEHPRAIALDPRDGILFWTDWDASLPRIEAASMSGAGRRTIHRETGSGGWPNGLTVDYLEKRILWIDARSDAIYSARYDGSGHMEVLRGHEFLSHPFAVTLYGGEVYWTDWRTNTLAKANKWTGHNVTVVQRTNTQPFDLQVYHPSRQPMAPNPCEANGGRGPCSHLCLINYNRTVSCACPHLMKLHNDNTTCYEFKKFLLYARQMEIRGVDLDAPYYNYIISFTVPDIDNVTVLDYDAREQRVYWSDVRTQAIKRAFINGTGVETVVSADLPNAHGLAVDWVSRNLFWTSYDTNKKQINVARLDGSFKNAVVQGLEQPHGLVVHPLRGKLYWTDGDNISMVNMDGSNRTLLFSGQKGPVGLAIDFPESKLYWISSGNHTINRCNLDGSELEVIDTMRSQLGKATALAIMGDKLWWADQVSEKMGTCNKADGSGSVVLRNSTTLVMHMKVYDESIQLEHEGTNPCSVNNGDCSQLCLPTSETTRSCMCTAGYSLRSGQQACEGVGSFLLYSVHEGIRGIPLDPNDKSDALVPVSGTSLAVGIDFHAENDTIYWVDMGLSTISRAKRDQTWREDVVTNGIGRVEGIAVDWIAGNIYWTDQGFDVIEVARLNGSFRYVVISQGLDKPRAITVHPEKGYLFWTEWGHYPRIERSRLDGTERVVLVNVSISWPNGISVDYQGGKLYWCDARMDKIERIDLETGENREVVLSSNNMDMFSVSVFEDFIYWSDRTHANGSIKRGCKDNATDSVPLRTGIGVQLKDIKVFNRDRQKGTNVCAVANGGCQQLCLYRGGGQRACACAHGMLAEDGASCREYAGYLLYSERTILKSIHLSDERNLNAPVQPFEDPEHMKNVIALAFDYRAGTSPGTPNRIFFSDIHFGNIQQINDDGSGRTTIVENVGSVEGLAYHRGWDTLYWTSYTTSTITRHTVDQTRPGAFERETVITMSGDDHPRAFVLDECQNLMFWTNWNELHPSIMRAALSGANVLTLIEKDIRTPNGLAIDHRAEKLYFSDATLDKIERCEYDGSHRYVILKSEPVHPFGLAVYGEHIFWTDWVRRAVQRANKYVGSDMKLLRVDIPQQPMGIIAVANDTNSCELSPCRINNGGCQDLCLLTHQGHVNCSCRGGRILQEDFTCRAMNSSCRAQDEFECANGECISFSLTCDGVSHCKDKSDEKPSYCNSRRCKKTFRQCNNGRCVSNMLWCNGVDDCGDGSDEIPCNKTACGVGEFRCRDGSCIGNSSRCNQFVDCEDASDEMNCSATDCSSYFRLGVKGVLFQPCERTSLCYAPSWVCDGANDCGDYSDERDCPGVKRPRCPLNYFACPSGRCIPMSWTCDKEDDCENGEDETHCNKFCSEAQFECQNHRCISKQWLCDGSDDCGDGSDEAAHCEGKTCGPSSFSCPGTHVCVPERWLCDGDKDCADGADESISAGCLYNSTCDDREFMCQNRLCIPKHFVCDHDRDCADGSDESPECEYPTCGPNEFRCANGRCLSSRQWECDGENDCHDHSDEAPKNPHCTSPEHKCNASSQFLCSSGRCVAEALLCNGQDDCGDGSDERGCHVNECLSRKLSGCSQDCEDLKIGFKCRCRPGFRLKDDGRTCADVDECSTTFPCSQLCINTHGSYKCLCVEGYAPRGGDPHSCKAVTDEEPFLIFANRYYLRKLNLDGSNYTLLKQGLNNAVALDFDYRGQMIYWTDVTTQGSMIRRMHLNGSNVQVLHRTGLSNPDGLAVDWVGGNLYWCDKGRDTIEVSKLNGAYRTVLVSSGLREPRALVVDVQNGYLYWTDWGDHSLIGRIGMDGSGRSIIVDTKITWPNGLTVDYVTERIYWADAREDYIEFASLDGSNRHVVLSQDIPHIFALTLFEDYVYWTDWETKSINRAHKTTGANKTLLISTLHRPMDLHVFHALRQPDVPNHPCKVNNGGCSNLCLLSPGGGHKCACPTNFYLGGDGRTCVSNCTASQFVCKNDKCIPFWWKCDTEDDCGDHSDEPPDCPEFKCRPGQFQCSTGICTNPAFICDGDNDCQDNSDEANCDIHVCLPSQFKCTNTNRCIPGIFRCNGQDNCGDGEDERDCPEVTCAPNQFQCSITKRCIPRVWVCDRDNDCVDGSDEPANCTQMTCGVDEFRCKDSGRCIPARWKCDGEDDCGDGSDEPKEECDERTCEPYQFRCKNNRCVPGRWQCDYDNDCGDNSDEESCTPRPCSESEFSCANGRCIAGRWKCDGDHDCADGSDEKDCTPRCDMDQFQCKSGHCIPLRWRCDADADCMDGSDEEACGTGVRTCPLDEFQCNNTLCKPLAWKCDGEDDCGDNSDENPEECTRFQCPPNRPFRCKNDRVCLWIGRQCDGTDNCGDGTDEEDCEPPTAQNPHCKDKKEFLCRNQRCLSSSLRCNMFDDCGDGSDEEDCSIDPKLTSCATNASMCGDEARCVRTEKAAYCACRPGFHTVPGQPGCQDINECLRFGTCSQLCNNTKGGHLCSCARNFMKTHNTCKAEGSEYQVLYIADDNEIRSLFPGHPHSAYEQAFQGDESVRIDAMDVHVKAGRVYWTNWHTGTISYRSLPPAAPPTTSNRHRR
Sequence of low density lipoprotein receptor-related protein (LRP) (G3V928 3945-4545 limits assumed): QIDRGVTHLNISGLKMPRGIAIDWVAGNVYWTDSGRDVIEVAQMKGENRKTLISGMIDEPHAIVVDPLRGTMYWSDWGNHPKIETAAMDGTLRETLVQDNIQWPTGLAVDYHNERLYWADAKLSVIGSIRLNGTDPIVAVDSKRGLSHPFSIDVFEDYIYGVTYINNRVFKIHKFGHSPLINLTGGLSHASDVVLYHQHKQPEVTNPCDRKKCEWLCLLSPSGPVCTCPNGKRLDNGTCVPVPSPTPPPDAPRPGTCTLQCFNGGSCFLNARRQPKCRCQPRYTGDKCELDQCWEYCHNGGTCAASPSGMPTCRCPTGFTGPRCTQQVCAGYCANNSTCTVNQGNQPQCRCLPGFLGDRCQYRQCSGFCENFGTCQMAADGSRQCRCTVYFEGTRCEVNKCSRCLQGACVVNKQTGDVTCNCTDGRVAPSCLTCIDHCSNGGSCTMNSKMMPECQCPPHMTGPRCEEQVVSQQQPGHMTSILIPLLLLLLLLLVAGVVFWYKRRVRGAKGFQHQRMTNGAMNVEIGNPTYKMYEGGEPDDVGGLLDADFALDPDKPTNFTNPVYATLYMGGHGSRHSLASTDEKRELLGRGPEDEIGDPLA

[7] = male, Sprague Dawley, rat, in vivo
[8] = female, NuNu, mouse, in vivo, 30 min
[9] = cited from earlier work; remark: listed apart in the source

For poly-L-lysine, the “effect on Kin for brain uptake of 125I-ANG1005” value (“effect on Kin for brain uptake” for short) ([1]; co-perfusion with poly-l-lysine 25 μM) was “not inhibited” and the “effect on Kin for brain uptake” value ([1]; co-perfusion with poly-l-lysine 25 μM, listed as poly-l-lysine) was “None of the four agents produced a statistically significant decrease”.
For `CN(C)CCCN1c2ccccc2Sc2ccc(Cl)cc21` [chlorpromazine, chlorpromazine hydrochloride], the “effect on Kin for brain uptake” value ([1]; co-perfusion with chlorpromazine 100 μM) was “None of the four agents produced a statistically significant decrease; also recorded: failed to alter”.
In the case of angiopep-2, the “transcytosis across a brain endothelial monolayer system in vitro” value [2] is given as “enhanced transcytosis”, the “brain tracer in parenchymal fraction” value [3] is given as over 70% and the “brain tracer in vascular (capillary) pellet” value [3] is given as under 30%. The “brain 14C-sucrose space in the presence of the tracer (BBB permeability)” value [4] was “not altered from control”, the “brain uptake by in situ perfusion” value [5] was “improved brain uptake” and the “reduction of brain 125I-ANG1005 uptake” value [6] was 30–40%.
In the case of `COc1ccc2c(c1)c(CC(=O)O)c(C)n2C(=O)c1ccc(Cl)cc1` [indomethacin], the “effect on Kin for brain uptake” value ([1]; co-perfusion with indomethacin 300 μM) is reported as “None of the four agents produced a statistically significant decrease; also recorded: failed to alter”.
For `OC[C@H]1O[C@@](CO)(O[C@H]2O[C@H](CO)[C@@H](O)[C@H](O)[C@H]2O)[C@@H](O)[C@@H]1O` [^14C-sucrose, sucrose], the “brain vascular volume Vv (brain distribution space of 14C-sucrose)” value [7] was 1.2 ± 0.2 × 10^−2 mL/g.
For `CC(=O)O[C@H]1C(=O)[C@@]2(C)[C@H]([C@H](OC(=O)c3ccccc3)[C@]3(O)C[C@H](OC(=O)[C@H](O)[C@@H](NC(=O)c4ccccc4)c4ccccc4)C(C)=C1C3(C)C)[C@]1(OC(C)=O)CO[C@@H]1C[C@@H]2O` [paclitaxel], the “lowering of brain drug content by vascular correction” value [8] is listed as ~ 84%, the “rise of brain paclitaxel concentrations on inhibition of active efflux transport” value [9] is listed as 6–10 fold and the “BBB transfer coefficient (Kin) for brain uptake” value [7] is listed as 8.5 ± 0.5 × 10^−5 mL/s/g.
For `N[C@@H](Cc1ccccc1)C(=O)O` [L-phenylalanine], the “effect on Kin for brain uptake” value ([1]; co-perfusion with L-phenylalanine 1 mM) was “None of the four agents produced a statistically significant decrease; also recorded: not inhibited”.
